Measurements: PubChem BioAssay (NCI)
Several values for one entry are separate records, joined by “and”; a condition that tells them apart may be missing. Identical values can stand only once.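 Protocol summary: plate cells (96-well), add compound at 5 concentrations, incubate 48 h, interpolate endpoints linearly. At the GI50, growth is halved. TGI denotes the concentration required for complete inhibition of growth.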

Key:
Assay in all cases: NCI anticancer screen, dose series, 48 h
[1] = test system: BT-549 breast
[2] = test system: DU-145 prostate
[3] = test system: HL-60(TB) leukemia
[4] = test system: K-562 leukemia
[5] = test system: MOLT-4 leukemia
[6] = test system: OVCAR-5 ovarian
[7] = test system: OVCAR-8 ovarian
[8] = test system: U251 CNS

SMILES | GI50 [1] | TGI [1] | GI50 [2] | TGI [2] | GI50 [3] | TGI [3] | GI50 [4] | TGI [4] | TGI [5] | GI50 [6] | TGI [6] [µM] | GI50 [7] | TGI [7] | GI50 [8] | TGI [8] [µM] | GI50 [5]
COc1cc2c3c(n(CCCNC(C)(C)CO)c(=O)c2cc1OC)-c1cc2c(cc1C3=O)OCO2 | 12.9 µM | 39.2 µM | 0.819 µM | 16.3 µM | 0.539 µM | 4.16 µM | 2.82 µM | > 55.7 µM | 0.11 µM | 16.3 µM | 36.8 | 1.18 µM | 22.4 µM | 0.233 µM | 28.4 | 
COC(=O)CC12CC(NC(=O)c3csc([C@@H](C[C@H](C(C)C)N(C)C(=O)[C@@H](NC(=O)[C@H]4CCCCN4C)C(C)C)OC(C)=O)n3)(C1)C2 | 0.00575 µM and 0.022 µM | 0.246 µM and 0.253 µM | 0.00352 µM and 0.00825 µM |  | 0.00282 µM and 0.00685 µM | 0.0111 µM and 0.0181 µM | 0.00194 µM and 0.00333 µM | > 33.3 µM | > 33.3 µM | 0.0049 µM and 0.0165 µM | > 33.3 | 0.00545 µM and 0.0131 µM | > 33.3 µM | 0.0036 µM and 0.013 µM | > 33.3 | 0.00615 µM and 0.0143 µM
Nc1nc(N)c2cc(Sc3ccc(Cl)cc3)ccc2n1 |  |  | 1.9 µM | 14.6 µM | 0.6 µM | 2.47 µM | 0.286 µM | 1.86 µM | 11.1 µM | 2.05 µM | 17.5 | 0.961 µM | 2.61 µM | 0.526 µM | 1.99 | 1.9 µM
CC[n+]1c(/C=C/c2ccc(N3CCCC3)cc2)cccc1/C=C/c1ccc(N2CCCC2)cc1 | 0.103 µM | 1.76 µM | 0.312 µM and 0.24 µM | 1.19 µM and 1.22 µM | 0.049 µM and 0.391 µM |  |  | > 100 µM |  | 0.476 µM | 1.48 | 0.248 µM and 0.124 µM | 1.61 µM and 0.953 µM | 0.202 µM | 1.04 | 0.128 µM and 0.354 µM
NS(=O)(=O)c1ccc(N=Nc2c(O)[nH]c3cccc(CCc4ccncc4)c23)cc1 | > 25 µM | > 25 µM | > 25 µM | > 25 µM | > 25 µM | > 25 µM | > 25 µM | > 25 µM | > 25 µM | > 25 µM | > 25 | > 25 µM | > 25 µM | > 25 µM | > 25 | > 25 µM
COC(=O)Nc1nc2ccc(C(=O)C3CC3)cc2[nH]1 | 1.01 µM | > 30.7 µM | 0.256 µM | 1.11 µM | 0.448 µM | > 100 µM | 0.417 µM | > 100 µM | > 100 µM | 3.25 µM | > 56.1 | 0.668 µM | > 100 µM | 0.426 µM | > 100 | 1.25 µM
COc1cc(C)cc(C(=O)OCc2ccccc2)c1C1=C(Cl)C(=O)C(Cl)=CC1=O |  | > 10 µM |  | > 10 µM |  | 2.55 µM |  | 5.37 µM | 5.29 µM |  | > 10 |  | > 10 µM |  | > 10 | 
COc1ccc2c(c1)OC(N)=C(C#N)C2c1ccc(F)c(F)c1 (stereo not given) | 0.598 µM | 65.6 µM | 0.522 µM | > 46.5 µM | 0.272 µM | 0.716 µM | 0.257 µM | > 100 µM | > 100 µM | 2.84 µM | > 100 | 0.602 µM | > 44.3 µM | 0.425 µM | > 45.5 | 0.55 µM
ClCCN(CCCl)c1ccc(OCc2ccccc2)cc1 | 2.5 µM | 22.6 µM | 3.16 µM | 27.6 µM | 1.84 µM | 23.7 µM | 7.02 µM | > 100 µM | 40 µM | 29 µM | > 100 | 3.3 µM | 75.7 µM | 2.1 µM | 18.2 | 1.74 µM
O=C([CH-]C(=O)c1ccccc1)c1ccccc1.O=C([CH-]C(=O)c1ccccc1)c1ccccc1.[CH2-]CCC.[CH2-]CCC.[Sn+4] |  |  |  |  | 0.169 µM | 0.606 µM | 0.15 µM | 0.746 µM | 0.754 µM | 2.06 µM | 3.51 | 0.939 µM | 2.46 µM | 0.45 µM | 1.56 | 0.253 µM
COc1c(O)cc2c(c1CC=C(C)C)OC(=O)c1c(cc(O)c(CC=C(C)C)c1O)O2 |  |  | 4.18 µM | 7.62 µM | 5.76 µM | 15.4 µM | 5.91 µM | 17 µM | 12.7 µM | 3.89 µM | 7.85 | 4.47 µM | 8.71 µM | 4.23 µM | 7.75 | 4.1 µM
Cc1ccc([I+]c2ccc(C)cc2)cc1 | 5.28 µM | 75.7 µM | 12 µM | > 100 µM |  |  |  |  |  | 39.2 µM | > 100 | 2.2 µM | 46.5 µM | 4.1 µM | > 100 | 
N#CC1(C#N)C2C=CC(C3CC=CC32)C1(C#N)C#N (stereo not given) |  |  |  | 16.7 µM |  | 2.87 µM | 1.01 µM | 5.83 µM and 3.38 µM | 3.5 µM and 3.55 µM |  | 16.8 |  |  |  | 17.6 | 1.2 µM
CCOC(=O)Nc1ccc2c3c(cccc13)-c1ccccc1-2 | > 100 µM | > 100 µM | 7.56 µM | > 100 µM |  |  | 4.12 µM | > 100 µM | > 100 µM | > 100 µM | > 100 | > 100 µM | > 100 µM | 5.52 µM | > 100 | 8.5 µM
CC(=O)NS(=O)(=O)c1ccc(-n2nc(-c3ccccc3)cc2-c2cc(O)ccc2O)cc1 | > 100 µM | > 100 µM |  |  | 61.8 µM | > 100 µM | > 100 µM | > 100 µM | > 100 µM | > 100 µM | > 100 | > 100 µM | > 100 µM | 61.6 µM | > 100 | > 100 µM
CSc1nc(SC)c2c(C)cn(Cc3ccccc3)c2n1 |  | > 100 µM |  | > 100 µM |  | > 100 µM |  |  | > 100 µM |  | > 100 |  | > 100 µM |  | > 100 | 
Cc1cn2c(/C=N/NC3=NCCN3)c(-c3ccc(Cl)c([N+](=O)[O-])c3)nc2s1 | 0.892 µM | 1.77 µM | 0.789 µM | 1.89 µM |  |  | 1.08 µM | 2.34 µM |  | 6.75 µM | 17.2 | 1.12 µM | 2.45 µM | 0.947 µM | 1.75 | 
